In the assay the target is T1, DPP-IV (Homo sapiens, UniProt P27487).
T1 construct: Soluble human DPP-IV lacking the transmembrane anchor (Gly31-Pro766); Pre-Pro-alpha-mating factor leader (secretion fusion) (N, cleaved yes); made in house
As to the kind of experiment: Continuous fluorimetric assay of inhibition of DPP-IV peptidase activity (Gly-Pro-AMC cleavage). It counts as biochemical. The protocol:
Inhibition of DPP-IV peptidase activity was monitored with a continuous fluorimetric assay. This assay is based on the cleavage of the substrate Gly-Pro-AMC (Bachem) by DPP-IV, releasing free AMC. The assay is carried out in 96-well microtiterplates. In a total volume of 100 μL, compounds are preincubated with 50 pM DPP-IV employing a buffer containing 10 mM Hepes, 150 mM NaCl, 0.005% Tween 20 (pH 7.4). The reaction is started by the addition of 16 μM substrate and the fluorescence of liberated AMC is detected for 10 minutes at 25° C. with a fluorescence reader (BMG-Fluostar; BMG-Technologies) using an excitation wavelength of 370 nm and an emission wavelength of 450 nm. The final concentration of DMSO is 1%. The inhibitory potential of the compounds were determined.
Soluble human DPP-IV lacking the transmembrane anchor (Gly31-Pro766) was expressed in a recombinant YEAST-strain as Pre-Pro-alpha-mating fusion. The secreted product (rhuDPP-IV-Gly31-Pro766) was purified from fermentation broth (>90% purity) and used for inhouse screening.

[1] abbreviates: 50 pM DPP-IV, 16 μM Gly-Pro-AMC, pH 7.4, 25° C., values grouped in 2 classes, read-out: IC50 for inhibition of DPP-IV peptidase activity.

Counter-ions that a name gives are not always drawn. Like-named read-outs stand apart in the source and are kept apart here.

As a reminder, the IC50 is the point on the concentration scale where inhibition reaches its midpoint.

T1 sequence (P27487 31-766): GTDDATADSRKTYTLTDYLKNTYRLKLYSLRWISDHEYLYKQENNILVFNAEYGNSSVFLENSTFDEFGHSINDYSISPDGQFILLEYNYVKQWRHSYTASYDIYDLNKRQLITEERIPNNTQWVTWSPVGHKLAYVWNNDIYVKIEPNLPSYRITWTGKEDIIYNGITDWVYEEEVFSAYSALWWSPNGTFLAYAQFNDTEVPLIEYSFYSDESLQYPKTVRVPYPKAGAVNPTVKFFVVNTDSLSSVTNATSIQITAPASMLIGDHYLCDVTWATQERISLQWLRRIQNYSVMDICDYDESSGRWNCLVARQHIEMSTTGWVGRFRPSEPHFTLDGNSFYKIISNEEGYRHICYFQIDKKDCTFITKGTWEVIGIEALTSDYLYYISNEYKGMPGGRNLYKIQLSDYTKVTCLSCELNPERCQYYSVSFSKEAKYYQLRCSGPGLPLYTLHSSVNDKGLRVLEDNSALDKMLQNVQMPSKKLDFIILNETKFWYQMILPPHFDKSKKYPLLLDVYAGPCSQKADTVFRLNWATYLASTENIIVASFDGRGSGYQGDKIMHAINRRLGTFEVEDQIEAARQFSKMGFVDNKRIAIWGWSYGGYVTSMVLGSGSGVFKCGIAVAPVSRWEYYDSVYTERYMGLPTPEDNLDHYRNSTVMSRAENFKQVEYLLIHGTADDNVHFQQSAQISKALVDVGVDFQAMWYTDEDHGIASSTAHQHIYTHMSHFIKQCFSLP

Take `N[C@@H](CC(=O)N1CCCC1Cc1ccccc1)Cc1ccccc1F` (mixture of isomers) [Example 12]: the concentration for half-maximal inhibition (IC50) under setting [1] was under 500 nM.

On to `N[C@@H](CC(=O)N1CCC[C@H]1Cc1ccccc1)Cc1ccccc1F` (single isomer, unassigned) [Example 47], for which, under setting [1], the IC50 was under 500 nM.

In the case of `N[C@@H](CC(=O)N1CCC[C@@H]1Cc1ccccc1)Cc1ccccc1F` (single isomer, unassigned) [Example 48], the concentration for half-maximal inhibition (IC50) under setting [1] is under 500 nM.

Take `N[C@@H](CC(=O)N1CCC(Cc2ccccc2)CC1)Cc1ccccc1F` [Example 1]: the IC50 under setting [1] was 501 to 2000 nM.

Take `N[C@@H](CC(=O)N1CCC(CO)CC1)Cc1ccccc1F` [Example 2]: the 50% inhibitory concentration (IC50) under setting [1] was in the range of 501 to 2000 nM.

For the compound `N[C@@H](CC(=O)N1CCC(N(C2CC2)S(=O)(=O)c2ccccc2)CC1)Cc1ccccc1F` [Example 3], under setting [1], the IC50 was under 500 nM.

Take `N[C@@H](CC(=O)N1CCC(c2ccccc2)CC1)Cc1ccccc1F` [Example 4]: the 50% inhibitory concentration (IC50) under setting [1] is under 500 nM.

`N#CC1(c2ccccc2)CCN(C(=O)C[C@H](N)Cc2ccccc2F)CC1` [Example 5] gave an IC50 of under 500 nM.

As to `N[C@@H](CC(=O)N1CCC(n2c(=O)[nH]c3ccccc32)CC1)Cc1ccccc1F` [Example 6], under setting [1], the half-inhibitory concentration (IC50) is under 500 nM.

As to `COc1ccc(C2CCN(C(=O)C[C@H](N)Cc3ccccc3F)CC2)cc1` [Example 7], the concentration for half-maximal inhibition (IC50) under setting [1] was under 500 nM.

For `N[C@@H](CC(=O)N1CCC(N2CCCCC2=O)CC1)Cc1ccccc1F` [Example 8], the IC50 under setting [1] fell in the range of 501 to 2000 nM.

On to `COc1ccccc1C1CCN(C(=O)C[C@H](N)Cc2ccccc2F)CC1` [Example 9], for which the half-inhibitory concentration (IC50) under setting [1] is under 500 nM.

As for `N[C@@H](CC(=O)N1CCC(O)CC1)Cc1ccccc1F` [Example 10], the half-inhibitory concentration (IC50) under setting [1] lay within 501 to 2000 nM.

For `CCN(CC)C(=O)C1CCCN(C(=O)C[C@H](N)Cc2ccccc2F)C1` (some centres unmarked) [Example 11], the IC50 under setting [1] is 501 to 2000 nM.

As for `N[C@@H](CC(=O)N1CCCC1Cc1cccnc1)Cc1ccccc1F` (some centres unmarked) [Example 13], the half-inhibitory concentration (IC50) under setting [1] is under 500 nM.

With `N[C@@H](CC(=O)N1CCC(n2c(=O)[nH]c3cc(Cl)ccc32)CC1)Cc1ccccc1F` [Example 14], under setting [1], the concentration for half-maximal inhibition (IC50) is under 500 nM.

On to `N[C@@H](CC(=O)N1CCC(c2nc(-c3ccncc3)no2)CC1)Cc1ccccc1F` [Example 15], for which the half-maximal inhibitory concentration (IC50) under setting [1] is under 500 nM.

For `N[C@@H](CC(=O)N1CCCC1Cc1cccc(Cl)c1)Cc1ccccc1F` (some centres unmarked) [Example 16], the IC50 under setting [1] is under 500 nM.

As to `N[C@@H](CC(=O)N1CCCC1Cc1ccc(Cl)cc1)Cc1ccccc1F` (some centres unmarked) [Example 17], the IC50 under setting [1] is under 500 nM.

`N[C@@H](CC(=O)N1CCCC1Cc1ccccn1)Cc1ccccc1F` (some centres unmarked) [Example 18]: under setting [1], the concentration for half-maximal inhibition (IC50) was under 500 nM.

Take `N[C@@H](CC(=O)N1CCC(n2nnc3ccccc32)CC1)Cc1ccccc1F` [Example 19]: the IC50 under setting [1] is under 500 nM.

Regarding `N[C@@H](CC(=O)N1CCC(Oc2ccccc2)CC1)Cc1ccccc1F` [Example 20], the IC50 under setting [1] was under 500 nM.

Regarding `N[C@@H](CC(=O)N1CCC(c2nnc(-c3ccccc3)o2)CC1)Cc1ccccc1F` [Example 21], the IC50 under setting [1] is under 500 nM.

In the case of `CS(=O)(=O)c1ccc(-c2noc(C3CCN(C(=O)C[C@H](N)Cc4ccccc4F)CC3)n2)cc1` [Example 22], under setting [1], the IC50 is under 500 nM.

As to `N[C@@H](CC(=O)N1CCC(c2nc(-c3cccnc3)no2)CC1)Cc1ccccc1F` [Example 23], under setting [1], the IC50 is under 500 nM.

With `N[C@@H](CC(=O)N1CCC(C(=O)NCCO)CC1)Cc1ccccc1F` [Example 24], the IC50 under setting [1] fell in the range of 501 to 2000 nM.

Take `N[C@@H](CC(=O)N1CCC(N2CCOCC2)CC1)Cc1ccccc1F` [Example 25]: the concentration for half-maximal inhibition (IC50) under setting [1] lay within 501 to 2000 nM.

With `N[C@@H](CC(=O)N1CCC(c2nc(-c3cnccn3)no2)CC1)Cc1ccccc1F` [Example 26], under setting [1], the IC50 was under 500 nM.

Take `N[C@@H](CC(=O)N1CCC(C(F)(F)F)CC1)Cc1ccccc1F` [Example 27]: the IC50 under setting [1] is under 500 nM.

As to `N[C@@H](CC(=O)N1CCC(c2nnc(-c3ccc(F)cc3)o2)CC1)Cc1ccccc1F` [Example 28], under setting [1], the IC50 is under 500 nM.

On to `COc1cc(OC)nc(C2CCN(C(=O)C[C@H](N)Cc3ccccc3F)CC2)n1` [Example 29], for which the 50% inhibitory concentration (IC50) under setting [1] was under 500 nM.

Regarding `N[C@@H](CC(=O)N1CCCC(F)(F)C1)Cc1ccccc1F` [Example 30], the IC50 under setting [1] lay within 501 to 2000 nM.

On to `N[C@@H](CC(=O)N1CCC(Nc2cccc(S(=O)(=O)C(F)(F)F)c2)CC1)Cc1ccccc1F` [Example 31], for which the concentration for half-maximal inhibition (IC50) under setting [1] was under 500 nM.

`N[C@@H](CC(=O)N1CCC(c2nc3ccccc3[nH]2)CC1)Cc1ccccc1F` [Example 32]: the IC50 under setting [1] is under 500 nM.

With `N[C@@H](CC(=O)N1CCCC(Cc2ccccc2Cl)C1)Cc1ccccc1F` (some centres unmarked) [Example 33], the half-inhibitory concentration (IC50) under setting [1] lay within 501 to 2000 nM.

Take `N[C@@H](CC(=O)N1CCCC(Oc2ccccc2)C1)Cc1ccccc1F` (some centres unmarked) [Example 34]: the concentration for half-maximal inhibition (IC50) under setting [1] was under 500 nM.

Consider `N[C@@H](CC(=O)N1CCC(c2ccc(Cl)cc2)CC1)Cc1ccccc1F` [Example 35], for which the IC50 under setting [1] fell in the range of 501 to 2000 nM.

For the compound `N[C@@H](CC(=O)N1CCC(N(C2CC2)S(=O)(=O)c2ccc(Cl)cc2)CC1)Cc1ccccc1F` [Example 36], under setting [1], the concentration for half-maximal inhibition (IC50) is under 500 nM.

As for `N[C@@H](CC(=O)N1CCC(c2cccc(F)c2)CC1)Cc1ccccc1F` [Example 37], the 50% inhibitory concentration (IC50) under setting [1] lay within 501 to 2000 nM.

Consider `N[C@@H](CC(=O)N1CCC(c2ccccc2C(F)(F)F)CC1)Cc1ccccc1F` [Example 38], for which the IC50 under setting [1] was under 500 nM.

`Cc1ccc(S(=O)(=O)C2CCN(C(=O)C[C@H](N)Cc3ccccc3F)CC2)cc1` [Example 39]: the 50% inhibitory concentration (IC50) under setting [1] is under 500 nM.

Turning to `N[C@@H](CC(=O)N1CCC(c2nc(-c3cccc(C(F)(F)F)c3)no2)CC1)Cc1ccccc1F` [Example 40], the IC50 under setting [1] lay in the range of 501 to 2000 nM.

For `N[C@@H](CC(=O)N1CCC(c2nnc(-c3cccc(C(F)(F)F)c3)o2)CC1)Cc1ccccc1F` [Example 41], the IC50 under setting [1] fell in the range of 501 to 2000 nM.

As to `N[C@@H](CC(=O)N1CCC(c2cccc(Cl)c2)CC1)Cc1ccccc1F` [Example 42], the IC50 under setting [1] was in the range of 501 to 2000 nM.

As for `N[C@@H](CC(=O)N1CCCC(F)C1)Cc1ccccc1F` (some centres unmarked) [Example 43], under setting [1], the half-maximal inhibitory concentration (IC50) fell in the range of 501 to 2000 nM.

With `N[C@@H](CC(=O)N1CCC(F)CC1)Cc1ccccc1F` [Example 44], the IC50 under setting [1] fell in the range of 501 to 2000 nM.

Turning to `N[C@@H](CC(=O)N1CCC(N2C(=O)Cc3ccccc32)CC1)Cc1ccccc1F` [Example 45], the IC50 was under 500 nM.

Regarding `N[C@@H](CC(=O)N1CCCC(C(F)(F)F)C1)Cc1ccccc1F` (some centres unmarked) [Example 46], the IC50 under setting [1] was in the range of 501 to 2000 nM.

On to `N[C@@H](CC(=O)N1CC(C(=O)NCc2ccccc2)C1)Cc1ccccc1F` [Example 49, 1-[3-(R)-amino-4-(2-fluoro-phenyl)-butyryl]-azetidine-3-carboxylic acid benzylamide], for which the 50% inhibitory concentration (IC50) under setting [1] is 501 to 2000 nM.

In the case of `N[C@@H](CC(=O)N1CC(C(=O)Nc2ccccn2)C1)Cc1ccccc1F` [Example 50], the 50% inhibitory concentration (IC50) under setting [1] lay within 501 to 2000 nM.

Turning to `N[C@@H](CC(=O)N1CC(N2CCN(c3ccccn3)CC2)C1)Cc1ccccc1F` [Example 51, (3R)-3-amino-4-(2-fluoro-phenyl)-1-[3-(4-pyridin-2-yl-piperazin-1-yl)-azetidin-1-yl]-butan-1-one trifluoroacetic acid], the 50% inhibitory concentration (IC50) under setting [1] was 501 to 2000 nM.

For the compound `N[C@@H](CC(=O)N1CC[C@H](NC(=O)C2CC2)C1)Cc1ccccc1F` [Example 52, N-((S)-1-((R)-3-amino-4-(2-fluorophenyl)butanoyl)pyrrolidin-3-yl)cyclopropane-carboxamide trifluoroacetic acid salt], the half-maximal inhibitory concentration (IC50) under setting [1] was under 500 nM.

Consider `N[C@@H](CC(=O)N1CC[C@H](NC(=O)c2ccccc2)C1)Cc1ccccc1F` [Example 53, N-((S)-1-((R)-3-amino-4-(2-fluorophenyl)butanoyl)pyrrolidin-3-yl)benzamide trifluoroacetic acid salt], for which the IC50 under setting [1] is under 500 nM.

Regarding `N[C@@H](CC(=O)N1CC[C@@H](NC(=O)C2CC2)C1)Cc1ccccc1F` [Example 54, N-((R)-1-((R)-3-amino-4-(2-fluorophenyl)butanoyl)pyrrolidin-3-yl)cyclopropane-carboxamide trifluoroacetic acid salt], the 50% inhibitory concentration (IC50) under setting [1] is under 500 nM.

With `N[C@@H](CC(=O)N1CC[C@@H](NC(=O)c2ccccc2)C1)Cc1ccccc1F` [Example 55, N-((R)-1-((R)-3-amino-4-(2-fluorophenyl)butanoyl)pyrrolidin-3-yl)benzamide trifluoroacetic acid salt], the IC50 under setting [1] was under 500 nM.

As for `N[C@H](Cc1ccccc1F)CS(=O)(=O)N1CCC[C@H]1CNS(=O)(=O)c1ccccc1` [Example 56, N-{(S)-1-[(R)-2-Amino-3-(2-fluoro-phenyl)-propane-1-sulphonyl]-pyrrolidin-2-ylmethyl}-benzenesulfonamide], the half-maximal inhibitory concentration (IC50) under setting [1] was under 500 nM.

The values are drawn from US20080275086A1, “Dpp-Iv Inhibitors” (priority 2005, published 2008).
